EC50, IC50 and T.I. data for ten compounds are collected here from patent US20060205697A1, “Novel betulin derivatives, preparation thereof and use thereof” (priority 2004, published 2006).

Like-named read-outs stand apart in the source and are kept apart here.

The test system of data set [1] is HIV-1 IIIIB isolate. Nature of the data set: HIV-1 inhibition: suppression of virus-induced cell killing in MT-2 cells, XTT method. Format: cell-based. The settings on record: Human immunodeficiency virus 1, IIIB, MT2, 120 h, read-out: anti-HIV activity (EC50). The protocol: The biological evaluation of HIV-1 inhibition can be carried out as follows according to established protocols (Montefiori, D. C., et al., Clin. Microbiol. 26:231-235 (1988); Roehm, N., et al. J. Immunol. Methods 142:257-265 (1991)).
(§1) The human T-cell line, MT-2, was maintained in continuous culture with complete medium (RPMI 1640 with 10% fetal calf serum supplemented with L-glutamine at 5% CO2 and 37° C.). Test samples were first dissolved in dimethyl sulfoxide at a concentration of 10 mg/mL to generate master stocks with dilutions made into tissue culture media to generate working stocks. The final drug concentrations used for screening were 25. 2.5, 0.25, and 0.025 μg/mL. For agents found to be active, additional dilutions were prepared for subsequent testing so that an accurate EC50 value (defined below) could be determined. Test samples were prepared in duplicate (45 μL/well) and to each sample well was added […] of media containing MT-2 cells at 3×10^5 cells/mL and 45 μL of virus inoculum (HIV-1 IIIIB isolate) at a concentration necessary to result in 50% killing of the cell targets at 5 days post-infection (PI). Control wells containing virus and cells only (no drug) and cells only (no virus or drug) were also prepared. A second set of samples were prepared identical to the first and were added to cells under identical conditions without virus (mock infection) for toxicity determinations (IC50 defined below). In addition, AZT was also assayed during each experiment as a positive drug control. On day 5 PI, virus-induced cell killing was determined by measuring cell viability using the XTT method (Roehm, N., et al., supra). Compound toxicity was determined by XTT using the mock-infected samples. If a test sample had suppressive capability and was not toxic, its effects were reported in the following terms: IC50, the concentration of test sample which is toxic to 50% of the mock-infected MT-2 cells; EC50, the concentration of the test sample that is able to suppress HIV replication by 50%; and the Therapeutic index (TI) the ratio of the IC50 to EC50. The effective (EC50) and inhibitory (IC50) concentrations for anti-HIV activity and cytotoxicity, respectively, were determined (Roehm, N., et al., supra).
(In general: Tetrazolium dyes change colour on reduction, which living cells bring about.)

Data set [2] is described as follows: Compound toxicity in mock-infected MT-2 cells, XTT method. The format is cell-based. The settings on record: human. Here is the method:
as §1

Data set [3] has as its system HIV-1 replication in H9 lymphocyte cells. The settings on record: cited from earlier work.

Usually EC50 stands for the concentration that produces a half-maximal response. Broadly, the IC50 is the midpoint of a concentration-inhibition curve. `C=C(C)[C@@H]1CC[C@]2(C(=O)OC3CCOC3)CC[C@]3(C)[C@H](CC[C@@H]4[C@@]5(C)CC[C@H](OC(=O)CC(C)(C)CC(=O)O)C(C)(C)[C@@H]5CC[C@]43C)[C@@H]12` (mixture of isomers) [Compound 231, 3-O-(31,3′-Dimethylglutaryl)betulinic acid 3-(R/S)-3-(tetrahydrofuranyl) ester]: the EC50 in data set [1] was in the range of 1 to 300 nM. This compound also displayed an IC50 at 5 days in data set [2] of 5 to 100 µM.

Turning to `C=C(C)[C@@H]1CC[C@]2(CN)CC[C@]3(C)[C@H](CC[C@@H]4[C@@]5(C)CC[C@H](OC(=O)CC(C)(C)CC(=O)O)C(C)(C)[C@@H]5CC[C@]43C)[C@@H]12` [Compound 49, 3-O-(3′,3′-dimethylglutaryl)lup-20(29)-en-28-ylamine], the EC50 in data set [1] was in the range of 1 to 300 nM. Besides, in data set [2], the IC50 at 5 days was in the range of 5 to 100 µM.

For the compound `C=C(C)[C@@H]1CC[C@]2(C(=O)OCCC#N)CC[C@]3(C)[C@H](CCC4[C@@]5(C)CC[C@H](OC(=O)CC(C)(C)CC(=O)O)C(C)(C)C5CC[C@]43C)C12` (some centres unmarked) [Compound 206, 3-O-(3′,3′-Dimethylglutaryl)betulinic acid 2-cyanoethyl ester], the 50% effective concentration (EC50) in data set [1] lay within 1 to 300 nM. The IC50 at 5 days in data set [2] lay in the range of 5 to 100 µM.

Regarding `C=C(C)[C@@H]1CC[C@]2(C(=O)OCCN(C)C)CC[C@]3(C)[C@H](CCC4[C@@]5(C)CC[C@H](OC(=O)CC(C)(C)CC(=O)O)C(C)(C)C5CC[C@]43C)C12` (some centres unmarked) [Compound 218, 3-O-(3′,3′-Dimethylglutaryl)betulinic acid 2-N,N-dimethylaminoethyl ester], the EC50 in data set [1] was in the range of 1 to 300 nM. This compound displayed an IC50 at 5 days in data set [2] of 5 to 100 µM.

As to `C=C(C)[C@@H]1CC[C@]2(C(=O)OCCOC)CC[C@]3(C)[C@H](CC[C@@H]4[C@@]5(C)CC[C@H](OC(=O)CC(C)(C)CC(=O)O)C(C)(C)[C@@H]5CC[C@]43C)[C@@H]12` [Compound 223, 3-O-(3′,3′-Dimethylglutaryl)betulinic acid 2-methoxyethyl ester], the EC50 in data set [1] is 1 to 300 nM. For the same compound, the IC50 at 5 days in data set [2] is 5 to 100 µM.

Take `C=C(C)[C@@H]1CC[C@]2(C(=O)OC3CCN(C(=O)OC(C)(C)C)C3)CC[C@]3(C)[C@H](CC[C@@H]4[C@@]5(C)CC[C@H](OC(=O)CC(C)(C)CC(=O)O)C(C)(C)[C@@H]5CC[C@]43C)[C@@H]12` (stereo partly drawn) [Compound 227, 3-O-(3′,3′-Dimethylglutaryl)betulinic acid (R)-3-[1-(tert-butoxycarbonyl)-pyrrolidinyl] ester]: the EC50 in data set [1] lay in the range of 1 to 300 nM. For the same compound, in data set [2], the IC50 at 5 days was in the range of 5 to 100 µM.

Consider `C=C(C)[C@@H]1CC[C@]2(C(=O)OCC)CC[C@]3(C)[C@H](CC[C@@H]4[C@@]5(C)CC[C@H](OC(=O)CC(C)(C)CC(=O)O)C(C)(C)[C@@H]5CC[C@]43C)[C@@H]12` [Compound 235, 3-O-(3′,3′-Dimethylglutaryl)betulinic acid ethyl ester], for which the EC50 in data set [1] fell in the range of 1 to 300 nM. The compound further yielded an IC50 at 5 days in data set [2] of 5 to 100 µM.

Consider `C=C(C)[C@@H]1CC[C@]2(CNC(=O)OC(C)(C)C)CC[C@]3(C)[C@H](CC[C@@H]4[C@@]5(C)CC[C@H](OC(=O)CC(C)(C)CC(=O)O)C(C)(C)[C@@H]5CC[C@]43C)[C@@H]12` [Compound 1065, tert-Butoxycarboxamide N-[3-O-(3′,3′-dimethylglutaryl)lup-20(29)-en-28-yl]], for which the EC50 in data set [1] was 1 to 300 nM. The IC50 at 5 days in data set [2] fell in the range of 5 to 100 µM.

Take `CC(C)[C@@H]1CC[C@]2(C(=O)O)CC[C@]3(C)C(CCC4[C@@]5(C)CC[C@H](O)C(C)(C)C5CC[C@]43C)C12` (some centres unmarked) [dihydrobetulinic acid]: the T.I. in data set [3] (H9 lymphocyte cells) is reported as 14. Moreover, the EC50 in data set [3] (unit inferred, Fujioka et al. 1994, read-out: EC50, anti-HIV activity) was 0.9 µM.

Turning to `CC(=O)[C@@H]1CC[C@]2(C(=O)O)CC[C@]3(C)[C@H](CC[C@@H]4[C@@]5(C)CC[C@H](O)C(C)(C)[C@@H]5CC[C@]43C)[C@@H]12` [platanic acid], the T.I. in data set [3] (H9 lymphocyte cells) is 14. Moreover, the EC50 in data set [3] (H9 lymphocyte cells, read-out: EC50, inhibitory activity against HIV-1 replication) was 6.5 µM.
